Test results from a melting point compilation (Tetko et al.; mined from patent text by program, amines drawn as free bases though some values may be those of a salt).

Row | Compound | melting point [°C]
1 | N#Cc1c(N2CCCCC2)cc(-c2ccc3ccc4cccc5ccc2c3c45)c2c1Cc1ccccc1-2 | 168 to 169
2 | CN(C)C(=O)c1c(-c2ccc(F)cc2)ccc2ccccc12 | 103 to 104
3 | CC(C)(C)c1cc(C(C)(C)C)c(O)c(S(=O)(=O)Nc2ccc([N+](=O)[O-])cc2Cl)c1 | 158 to 161
4 | CC(C)Nc1nc(NC(C)C)nc(OC(F)F)n1 | 81 to 82
5 | COc1cc(-c2cnc3[nH]cc(C(=O)O)c3n2)cc(OC)c1OC | 238
6 | CCOC(=O)C(=CN(C)c1cnsn1)C(=O)c1cc(F)c(Cl)nc1Cl | 108 to 110
7 | CC(C)(C)OC(=O)NC1CCCCCC=CC2CC2(C(=O)NS(=O)(=O)C2CC2)NC(=O)C2CC(OC(=O)c3ccc(C#N)cc3)CN2C1=O (stereo unspecified) | 164 to 166
8 | Cc1nc(-c2ccc(C(F)(F)F)cc2)sc1CSc1ccc(OCC(=O)O)c2ccccc12 | 181 to 183
9 | Cc1ccccc1NC(=O)C1CCc2nc[nH]c2C1 (stereo unspecified) | 100 to 105
10 | Cc1cc(-c2ccc(Cl)cc2)nc(-n2cnc(-c3ccc(S(N)(=O)=O)s3)c2)n1 | 281
11 | CCOC(=O)CC(=O)c1ccc(Cl)c(C)c1 | 50 to 51
12 | CCOC(=O)C1(CC(=O)O)N=C(c2ccc(Cl)cc2)c2c(sc(C)c2C)-n2c(C)nnc21 (stereo unspecified) | 198 to 202
13 | CCCCCCCNC(=O)Nc1ccc(O)cc1C(=O)NCC1CCN(C(c2ccccc2)c2ccccc2)CC1 | 165 to 167
14 | Clc1nc(-n2cnc(-c3ccccc3)c2-c2ccccc2)c2ccccc2c1-c1ccccc1 | 195 to 196
15 | CN1C2CCC1CC(O)(c1ccc(F)cc1)C2 (stereo unspecified) | 169
16 | COc1ccc(C2=NNC(N)(C3CCN(Cc4ccccc4)CC3)c3cc(OC)ccc32)cc1 (stereo unspecified) | 150
17 | Cc1cc2ccccn2c1 | 57 to 58
18 | CC1(C)CCC(C)(C)c2c(OCc3ccc(F)cc3)cc(C(O)c3ccc4cc(C(=O)O)ccc4c3)cc21 (stereo unspecified) | 212
19 | Cc1ccc(N=c2sc3ncccc3c(=O)n2C)cc1 | 144
20 | COCc1cc(-n2nc(C(F)(F)F)cc2-c2ccc(-c3ccco3)cc2)ccc1S(C)(=O)=O | 142 to 143
21 | CN1CCC(c2c[nH]c3ccc(-n4ccnc4)cc23)CC1 | 217
22 | COc1ccc(-c2ccc(C)nc2-c2ccc(OCCN3CCCC3)cc2)cc1 | 63 to 64
23 | O=c1c2c(Cc3ccccc3)n[nH]c2c2cccnc2n1-c1cccc(F)c1 | 298 to 299
24 | FC(F)(F)c1cccc(-c2nnc(Cl)cc2Cl)c1 | 80 to 81.5

Row | Compound | melting point [°C]
25 | O=C1[C@H]2CCC[C@H]2N(C(=O)CCCCBr)c2ccccc2N1Cc1ccccc1 (relative stereo) | 134 to 135
26 | c1ccc(Sc2ccc(-c3ccc(Sc4ccccc4)cc3)cc2)cc1 | 116 to 117
27 | COc1ccc(N2CCN(c3c(C)c(C)c4c(c3C)C(c3cccs3)C(C)(C)O4)CC2)cc1 (stereo unspecified) | 139 to 141
28 | CCOC(=O)c1sc(=O)[nH]c1C(Cl)(Cl)Cl | 109 to 110
29 | CCCC[C@H]1CC[C@H](c2ccc(-c3ccc(CCc4ccc(F)cc4)cc3)c(F)c2)CC1 | 68
30 | COc1ccc(C2=NN(Cc3cccnc3)C(=O)[C@H]3CC=CC[C@@H]23)cc1OC (relative stereo) | 117 to 120
31 | C=CCC1(CCNC(=O)C2CC2)c2cc(OC)ccc2CCC12OCCO2 (stereo unspecified) | 94 to 95
32 | CCP(=O)(O)CC(=O)CN | 189 to 192
33 | COc1ccc(-c2cccc(OCc3ccccc3)c2)cc1 | 78.5 to 81
34 | COc1ccc(S(=O)(=O)Nc2cccnc2Nc2ccccc2O)cc1 | 154 to 155
35 | CCCCC[C@H]1CC[C@H](C(=O)Oc2ccc(OC(F)F)cc2)CC1 | 54
36 | COc1cc2c(cc1OCc1ccccc1)CCCC(=O)N2Cc1cc(OC)c(OC)c(OC)c1 | 129 to 130
37 | Cc1ccc(C)n1-c1ccc2ccc3[nH]c(=O)c(=O)n(CC(=O)NCc4ccccc4)c3c2c1 | 243 to 244
38 | O=C1c2ccccc2C(=O)N1CC(Cc1c[nH]c([N+](=O)[O-])n1)ON1C(=O)c2ccccc2C1=O (stereo unspecified) | 119 to 121
39 | Cc1cc(SC(C)C)c(NC(=O)CCCSc2nc3c(C)c(Cl)cc(C(C)C)c3o2)c(SC(C)C)n1 | 141 to 143
40 | CCOC(=O)c1cn(CC)c2nc(N3CCC(NC(C)=O)C3)c(F)cc2c1=O (stereo unspecified) | 266 to 269
41 | OCc1c(Cl)cc(Cl)c2ccc(Cl)cc12 | 107 to 112
42 | N#Cc1nn(-c2c(Cl)cc(C(F)(F)F)cc2Cl)c(N)c1S(=O)(=O)c1ccc(Cl)cc1 | 90 to 95
43 | COC=C(C(=O)OC)N(C)c1ncnc(-c2ccccc2)n1 | 98 to 101
44 | CC(=O)OC1CSC(Oc2ccccc2[N+](=O)[O-])C(OC(C)=O)C1OC(C)=O (stereo unspecified) | 148
45 | CCOC(=O)c1cnoc1-c1ccc(-c2ccccc2)cc1 | 73 to 75
46 | CCOCc1nc2c(N)nc3ccccc3c2n1CC1(N)CCOCC1 | 53 to 63
47 | COc1ccc(OCC(O)CN2CCC(c3noc4cc(F)ccc34)CC2)cc1 (stereo unspecified) | 134 to 135
48 | c1c(N2CCCC2)nc(NC23CC4CC(CC(C4)C2)C3)nc1N1CCNCC1 | 160 to 164

Row | Compound | melting point [°C]
49 | CC12CCC(=O)C=C1CCC1C2=CCC2(C)C1CCC2(OC=O)C(=O)CCl (stereo unspecified) | 203
50 | CCN(CC)C(=O)Oc1cc(-c2ccccn2)nc2ccccc12 | 100
51 | O=C(O)c1cc([N+](=O)[O-])cc(Br)n1 | 172 to 173
52 | CC(C)(C(=O)N(O)Cc1ccccc1Cl)C(Cl)Cl | 136 to 138
53 | O=C(Nc1ccccn1)C(CC1CCCC1)c1ccc(S(=O)(=O)C(F)(F)F)cc1 (stereo unspecified) | 58 to 62
54 | C#CCN1CC(=O)N(c2ccc(Cl)cc2C)C1=S | 99 to 102
55 | C#CCOc1cc(Cl)cc(Cl)c1OCC#C | 61 to 63
56 | CC(C)(C)c1cc(C(=O)O)ccc1OCc1ccccc1 | 213 to 214
57 | COc1cc(C2C(=O)N(C)Cc3c2ccc(OC)c3OC(C)C)cc(OC)c1OC (stereo unspecified) | 128 to 129
58 | O=C(O)[C@H](Cc1ccccc1)NS(=O)(=O)c1ccc(N2CCC(Cc3ccccc3)CC2)cc1 | 164 to 165
59 | Cc1nc(-c2ccccc2)c(-c2ccccc2)nc1N(C)CCCCOCC(=O)OC(C)(C)C | 48 to 51
60 | COc1cc(C(O)CN2CCC(O)(c3ccccc3)CC2)on1 (stereo unspecified) | 166 to 168
61 | CNCCCNc1ccc2c(NC(=O)CC34CC5CC(CC(C5)C3)C4)c(C)ccc2n1 | 217 to 224
62 | CC(C)(C)c1csc(-c2cc3cc(CCc4ccccc4C(=O)O)ccc3o2)n1 | 147 to 148
63 | O=C(Nc1cccc2c(O)cccc12)c1ccc(F)c([N+](=O)[O-])c1 | 235 to 238
64 | Cn1cc(CN2CCCNC2=C[N+](=O)[O-])cn1 | 186 to 190
65 | CCCc1nn(-c2ccc(C(F)(F)F)cn2)cc1CCCOc1cccc(CCC(=O)O)c1 | 97 to 98
66 | O=c1[nH]c2sc3c(Cl)cccc3c2[nH]c1=O | > 300
67 | COCCOc1cc(Cl)cnc1[N+](=O)[O-] | 71.5 to 72.5
68 | OCCc1nccn1CCCc1ccc(OCc2coc(/C=C/c3ccc(F)cc3F)n2)cc1 | 94 to 96
69 | CCOC(=O)c1cnc2c(c(C)nn2-c2ccccn2)c1Cl | 121 to 123
70 | CC(C)(C)CC(C)(C)c1cc(Cc2cc(C(C)(C)CC(C)(C)C)cc(-n3nc4ccccc4n3)c2O)c(O)c(-n2nc3ccccc3n2)c1 | 198
71 | O=C(O)Cc1cc(Cl)ccc1OCc1ccccc1 | 76 to 77.5
72 | CC(=O)Nc1cccc(-c2ccccc2S(=O)(=O)Nc2onc(C)c2C)c1 | 168 to 171

Row | Compound | melting point [°C]
73 | CCc1cccc(NC(=O)C(C#N)=C(C)N(C)C)c1 | 98 to 100
74 | Cc1ccc(-c2coc3cc(O)cc(O)c3c2=O)cc1 | 215 to 217
75 | C=CCN1C(=O)NCC1c1ccc(OC)c(OC2CC3CCC2C3)c1 (stereo unspecified) | 110 to 113
76 | COCCOc1ccc2[nH]c(=O)n(C3CCCCC3)c2c1 | 182
77 | CC(C)Oc1cc(/C=C/C(=O)O)n(Cc2ncc(C(F)(F)F)cc2Cl)n1 | 130 to 132
78 | O=C(Cc1cccnc1)Nc1cccc(-c2ccnc3c(C(=O)c4cccs4)cnn23)c1 | > 200
79 | O=[N+]([O-])C=C1NCC(c2ccccc2)O1 (stereo unspecified) | 139 to 141
80 | COc1ccc(C(=O)C(=O)c2ccncc2)cc1OC1CCCC1 | 117 to 119
81 | CC1CCC(C2=C(O)C(=O)c3ccccc3C2=O)CC1 (stereo unspecified) | 101
82 | O=C(O)c1c2c(nc3ccccc13)-c1cc3sc4ccccc4c3cc1CC2 | 190 to 193
83 | CCCc1ccc(-c2ccc(-c3ccc(OC)cc3)nn2)cc1 | 128 to 130
84 | CC1C(=O)Oc2cc(N(Cc3ccccc3)Cc3ccccc3)ccc21 (stereo unspecified) | 111 to 112
85 | CCC12CCC3=C(CCc4cc(OC)ccc43)C1CCC2=O (stereo unspecified) | 110 to 125
86 | CCCCCCCC(=O)N1CCN(c2ccc3c(c2)N2CCN=C2C(c2ccccc2)=[N+]3[O-])CC1 | 212 to 213
87 | Cc1c(CC(=O)O)c2cc3c(cc2n1C(=O)C=Cc1ccccc1)OCO3 | 190 to 191
88 | CC(=O)Nc1ccc(S(=O)(=O)N(Cc2cc(C(C)(C)C)c(O)c(C(C)(C)C)c2)c2cccnc2)cc1 | 167 to 169
89 | CC(C)(C)NC(=O)N1CCn2c(Cl)c(-c3ccccc3)c(C(N)=O)c2C1 | 192 to 195
90 | O=C1[C@H]2CCC[C@H]2N(C(=O)CBr)c2ccccc2N1Cc1ccccc1 (relative stereo) | 177 to 179
91 | CCOC(=O)Cc1cccc(S(=O)(=O)c2ccccc2)c1[N+](=O)[O-] | 105 to 106
92 | CCOC(=O)c1ncn2c1CN=C(c1ccccn1)c1cc(C#C[Si](C)(C)C)ccc1-2 | 205 to 206
93 | NC(=O)N(O)CC1CC(c2ccco2)C1 (stereo unspecified) | 89 to 100
94 | CC(=O)Nc1ccc(Nc2c(NCc3ccccc3)cc(C(=O)O)cc2S(=O)(=O)Nc2ccccc2NC(C)=O)cc1 | 268
95 | Cc1cccc(NC(=O)CN2CCN(c3ncccc3C#N)CC2)c1 | 99 to 100
96 | O=C(O)CSC1c2cccc(O)c2C(=O)c2c(O)cccc21 | 151 to 152
